Earlier results, collected in patent US20220088213A1, “DRUG DELIVERY SYSTEM USING PH-DEPENDENT CELL-PENETRATING PEPTIDES, AND COMPOSITE THEREOF WITH DRUG” (priority 2019, published 2022).
Like-named read-outs stand apart in the source and are kept apart here.

Test system: cell membrane
Settings: cited from earlier work

Substance	cell-penetrating activity (pH dependence)	cell membrane penetration (acidic pH conditions)	cell membrane penetration (neutral pH)
ATRAM (GLAGLAGLLGLEGLLGLPLGLLEGLWLGLELEGN; Penetrating Peptide)	exhibits cell-penetrating activity only at a slightly acidic pH	–	–
GALA	–	penetrates a cell membrane	cannot penetrate the cell membrane
